Data: US8003615B2, “Stable vitamin B6 derivative” (Daiichi Fine Chemical Co., Ltd., priority 2003, dated 2011)

How the values were obtained:
[1] = type: physicochemical; settings: 0.5% (w/v) aqueous solution; for coloring of the aqueous solution after the light irradiation: D65 fluorescent lamp 13,000 Lx; for decomposition after light irradiation: pH about 6.3-7.2, D65 fluorescent lamp 13,000 Lx, room temperature, 14 days
Method: A 0.5% (w/v) aqueous solution of pyridoxine 3-β-D-glucoside (pH 6.7) in a volume of 0.3 ml was enclosed in a 1-ml volume glass ampoule, and irradiated with a D65 fluorescent lamp (Toshiba) for 14 days. The irradiation was performed at room temperature with an illumination of 13,000 Lx. Samples before the irradiation and after 1 day, 7 days and 14 days of the irradiation were analyzed by HPLC to measure a pyridoxine 3-β-D-glucoside content. A solution of pyridoxine hydrochloride of the same concentration (adjusted to pH 6.7) was treated in the same manner, and the results were compared. The HPLC measurement conditions were as follows.
Column: Inertsil ODS-3 ([…], ([…], φ4.6×150 mm, GL Science Inc.)
Eluent acetonitrile:0.1% (v/v) trifluoroacetic acid, 5 mM sodium 1-hexanesulfonate=1:9
Column temperature: 40° C.
Aqueous solutions (0.5% (w/v)) of pyridoxine 3-β-D-glucoside hydrochloride, pyridoxal 3-β-D-glucoside, pyridoxamine 3-β-D-glucoside, pyridoxine 3-β-D-galactoside, and pyridoxine hydrochloride (adjusted to pH 6.3 to 7.2 with HCl or NaOH) were each sealed in a volume of 0.3 ml in a 1-ml volume glass ampoule, and light irradiation and HPLC quantification were performed in the same manner as in Test Example 1. […] Test Example 4 (thermal stability of pyridoxine 3-β-D-glucoside hydrochloride and various 3-glycosides) […]

[2] = Thermal stability of aqueous solution kept at 50° C., HPLC; type: physicochemical; settings: 0.5% (w/v) aqueous solution; for coloring of the aqueous solution after the warming: 50° C. for 90 days; for decomposed by warming: pH about 6.3-7.2, 50° C. for 90 days
Method: A 0.5% (w/v) aqueous solution of pyridoxine 3-β-D-glucoside (pH 6.7) in a volume of 0.3 ml was sealed in a 1-ml volume glass ampoule, and kept at 50° C. under light shielding. The sample was warmed for 90 days, and analyzed during the warming by HPLC (analysis conditions were the same as those applied in Test Example 1) to measure a pyridoxine 3-β-D-glucoside content. A solution of pyridoxine hydrochloride of the same concentration (adjusted to pH 6.7) was treated in the same manner, and the results were compared.
Aqueous solutions (0.5% (w/v)) of pyridoxine 3-β-D-glucoside hydrochloride, pyridoxal 3-β-D-glucoside, pyridoxamine 3-β-D-glucoside, pyridoxine 3-β-D-galactoside, pyridoxine hydrochloride, pyridoxal hydrochloride, and pyridoxamine hydrochloride (adjusted to pH 6.3 to 7.2 with HCl or NaOH) were each sealed in a volume of 0.3 ml in a 1-ml volume glass ampoule, […] in the same manner as in Test Example 2.
0.5% (w/v) Aqueous solutions of pyridoxine 3,4′-cyclic sodium phosphate and pyridoxine hydrochloride (adjusted to pH 6.5 to 6.8) were each sealed in a volume of 0.3 ml in a 1-ml volume glass ampoule, and warming at 50° C. and HPLC analysis were performed in the same manner as in Test Example 2.

[3] = test system: mouse B16 melanoma cells; test: Test for melanin production suppression and cell survival rate in cultured cells; type: cell-based; set-up: key to Evaluation (whitening degree of B16 melanoma cells): +: whitening effect comparable to that of the control; ±: whitening effect a little weaker than that of the control; ×: no effect; −: test was not performed; settings: for Evaluation (whitening degree of B16 melanoma cells): control 100 μg/ml kojic acid; for Cell growth rate: relative to control taken as 100%; for suppressing effect on melanin production: overall conclusion from the tables
Method: Cultured mouse B16 melanoma cells were used. An appropriate amount of MEM medium containing 10% FBS was added to wells of two 6-well plates, and the B16 melanoma cells were inoculated, and incubated at 37° C. with 5 volume % CO2. On the next day, a sample-containing solution was added so that the medium contained the vitamin B6 derivative (pyridoxine 3-β-D-glucoside or pyridoxine 3-β-D-glucoside hydrochloride) at a final solid concentrations shown in FIG. 20, and then mixed. On the 5th day of the culture, the medium was exchanged, and the sample-containing solution was again added. On the next day, the medium was removed, and for one plate, the cells were washed with phosphate buffer (pH 7.0), and then collected. Then, whitening degree of the cultured B16 melanoma cells was evaluated according to the criteria mentioned below by using 100 μg/ml kojic acid as a control. […] The cell growth rate is indicated with a relative ratio based on that of the control, which is taken as 100%.

[4] = test system: hairless mouse; settings: 2% sample applied on the back 90 minutes before ultraviolet irradiation, 2 hours, 5 times/week, ten weeks; positive control DETAPAC
Method: It was evaluated whether or not the sample prepared by the following preparing method suppressed wrinkle formation caused by ultraviolet irradiation.
DETAPAC was used as a positive control.
Mice (10-week old) in each group consisting of 8 mice were applied with each of the aforementioned samples on the back 90 minutes before ultraviolet irradiation, and irradiated with ultraviolet rays of a fixed quantity (Toshiba FL20 S-BLB lamp) for 2 hours (5 times/week) over ten weeks to examine suppressing effect on wrinkle formation.
Wrinkle formation after the ultraviolet irradiation of ten weeks was graded in accordance with the “skin photoaging grades” mentioned below. The results were indicated as averages of the scores for eight mice.

[5] = test system: mouse B16 melanoma cells; test: Melanin production suppression by combination with whitening agent (arbutin); type: cell-based; settings: substance and arbutin each 100 μM, 5 days culture, intracellular melanin relative to solvent control
Method: Cultured mouse B16 melanoma cells were used. A vitamin B6 derivative (pyridoxine 3-β-D-glucoside) and arbutin (Wako Pure Chemical Industries) dissolved in purified water at given concentrations were each added to the medium at a concentration of 100 μM. With exchanges of the medium during the culture, the cells were cultured for 5 days, and then collected. The cell number was counted, and then intracellular melanin was quantified. As a control added with a solvent, the medium added with purified water was used. Based on the amount of the melanin observed for the control added with the solvent, which was taken as 1, the relative amount of intracellular melanin observed for each sample concentration was considered a melanin production ratio.

[6] = 50° C., in pharmaceutical preparations; cited from earlier work
[7] = final concentration 333.3 μg/mL

Compound | coloring of the aqueous solution after the light irradiation [1] | coloring of the aqueous solution after the warming [2] | decomposed by warming [2] | decomposition after light irradiation [1] | further results
Cc1ncc(CO)c(C=O)c1O[C@@H]1O[C@H](CO)[C@@H](O)[C@H](O)[C@H]1O [pyridoxal 3-β-D-glucoside, Pyridoxal 3-β-D-glucoside] | no coloring was observed | no coloring was observed | almost no decomposition |  | 
Cc1ncc(CO)c(C=O)c1O.Cl [pyridoxal hydrochloride, reference compound] |  | colored in yellow | ~55% |  | 
Cc1ncc(CO)c(CN)c1O[C@@H]1O[C@H](CO)[C@@H](O)[C@H](O)[C@H]1O [pyridoxamine 3-β-D-glucoside, Pyridoxamine 3-β-D-glucoside] | no coloring was observed | no coloring was observed | almost no decomposition | not observed | 
Cc1ncc(CO)c(CO[C@H]2O[C@H](CO)[C@@H](O)[C@H](O)[C@H]2O)c1O [pyridoxine 4′-α-D-glucoside] |  |  |  |  | long term stability compared with pyridoxine hydrochloride [6]: superior long term stability
N-(4-pyridoxylmethylene)-L-serine 3-β-D-glucoside |  |  |  | no decomposition was observed | 

Further lines, with some results ahead:

coloring of the aqueous solution after the light irradiation [1] | coloring of the aqueous solution after the warming [2] | decomposed by warming [2] | decomposition after light irradiation [1] | Compound | further results
 | colored in yellow | ~85% |  | Cc1ncc(CO)c(CN)c1O.Cl [pyridoxamine hydrochloride, reference compound] | 
 | no coloring was observed | almost no decomposition | no decomposition was observed | Cc1ncc(CO)c2c1OP(=O)([O-])OC2.[Na+] [pyridoxine 3,4′-cyclic sodium phosphate, Pyridoxine 3,4′-cyclic sodium phosphate] | 
no coloring was observed | no coloring was observed | almost no decomposition | not observed | Cc1ncc(CO)c(CO)c1O[C@@H]1O[C@H](CO)[C@H](O)[C@H](O)[C@H]1O [pyridoxine 3-β-D-galactoside, Pyridoxine 3-β-D-galactoside] | 
no coloring was observed | no coloring was observed | almost no decomposition | not observed | Cc1ncc(CO)c(CO)c1O[C@@H]1O[C@H](CO)[C@@H](O)[C@H](O)[C@H]1O.Cl [pyridoxine 3-β-D-glucoside hydrochloride] | Evaluation (whitening degree of B16 melanoma cells) ([3]; final concentration 100 μg/mL): ×; Cell growth rate ([3]; final concentration 100 μg/mL): 100%; Evaluation (whitening degree of B16 melanoma cells) [3, 7]: ×; Cell growth rate [3, 7]: 100%; Evaluation (whitening degree of B16 melanoma cells) ([3]; final concentration 1000 μg/mL): ×; Cell growth rate ([3]; final concentration 1000 μg/mL): 97%; Evaluation (whitening degree of B16 melanoma cells) ([3]; final concentration 3333 μg/mL): +; Cell growth rate ([3]; final concentration 3333 μg/mL): 87%; suppressing effect on melanin production [3]: superior suppressing effect on melanin production; suppressing effect on wrinkle formation (skin photoaging grades) [4]: comparable to or higher than that of DETAPAC
no coloring was observed | no coloring was observed | almost no decomposition | not observed | Cc1ncc(CO)c(CO)c1O[C@@H]1O[C@H](CO)[C@@H](O)[C@H](O)[C@H]1O [pyridoxine 3-β-D-glucoside, Pyridoxine 3-β-D-glucoside] | Evaluation (whitening degree of B16 melanoma cells) ([3]; final concentration 10 μg/mL): ×; Cell growth rate ([3]; final concentration 10 μg/mL): 101%; Evaluation (whitening degree of B16 melanoma cells) ([3]; final concentration 30 μg/mL): ×; Cell growth rate ([3]; final concentration 30 μg/mL): 101%; Evaluation (whitening degree of B16 melanoma cells) ([3]; final concentration 100 μg/mL): ×; Cell growth rate ([3]; final concentration 100 μg/mL): 101%; Evaluation (whitening degree of B16 melanoma cells) ([3]; final concentration 300 μg/mL): ±; Cell growth rate ([3]; final concentration 300 μg/mL): 101%; Evaluation (whitening degree of B16 melanoma cells) ([3]; final concentration 1000 μg/mL): +; Cell growth rate ([3]; final concentration 1000 μg/mL): 102%; suppressing effect on melanin production [3]: superior suppressing effect on melanin production; suppressing effect on melanin production in combination with arbutin [5]: superior suppressing effect on melanin production
